Source: article PMC2010101 (British Journal of Cancer, 1979)
Read-outs that look alike come from different tables or passages of the source.

Biological target: T1, low-Km cAMP phosphodiesterase
T1 construct: gene Pde3b; not purified, mixture of isoenzymes
Test: [3H]cAMP hydrolysis, paper chromatography
Type: biochemical, Rattus norvegicus
Details: 0.25 µM cAMP, 100 mM Tris-HCl pH 7.5, 4 mM MgCl2, 30 °C, 5 min, crude fraction, read-out: I50

Row | IC50 (competitive) [µM] | Compound | IC50 [µM]
1 | 790 | CN(C)N=Nc1[nH]cnc1C(N)=O [DTIC, 5-(3,3-dimethyl-1-triazeno)imidazole-4-carboxamide] | –
2 | – | Cn1c(=O)c2[nH]cnc2n(C)c1=O [theophylline] | 350
